Among the data in PMC11003683, “Pyrrole-based inhibitors of RND-type efflux pumps reverse antibiotic resistance and display anti-virulence potential” (PLOS Pathogens, 2024) are CC50 and MIC values, retold here.

Data set [1] in a line: in vitro. Also on record: MTT viability assay on human PBMCs, absorbance at 570 nm. The note with it: human, pbmc; 24 h exposure, MTT; read-out: IC50. As for the experimental part:
(§1) The cytotoxicity assay was performed on Human Peripheral Blood Mononuclear cells (H-PBMC, Himedia, India) according to the manufacturer’s instructions. The H-PBMC (40,000 cells/well in 100 μL volume) suspension in RPMI-1640 media (containing 10% fetal bovine serum and 50 U/mL antibiotic-antimycotic solution) (Himedia^, India) was dispensed into 96-well polystyrene tissue culture-treated flat-bottom plates (Corning, U.S.). The plates were incubated for 48 h in a CO2 (5%) incubator at 37°C. After 48 h, the compounds (Ar1-Ar24) were added to the plates in a fresh medium and again incubated for 24 h in a CO2 (5%) incubator at 37°C. Next, MTT (1 mg/mL) was added to the wells, followed by incubation for 4–5 h. The formazan crystals were solubilized using a solubilizing solution (40% (v/v) dimethyl formamide in 2% (v/v) glacial acetic acid added with 16% sodium dodecyl sulfate), and the absorbance (OD570nm) was measured. Considering the lack of effect of EPIs on eukaryotic Ca^2+ ion channels, we further evaluated cytotoxicity on Human Peripheral Blood Mononuclear cells (H-PBMC). […] Our front runners, Ar1, Ar5, and Ar11, had extremely low toxicity toward H-PBMCs. […] Taken together, these experiments provide substantial evidence that Ar5 is non-toxic in vitro and can be used for therapeutic applications in vivo.

Data set [2] is described as follows: in vitro. Details: species or system H-PBMC; MTT viability assay, absorbance at 570 nm, cytotoxicity IC50. The note with it: human, pbmc; read-out: IC50. As to the method:
as §1

Data set [3] relates to T1, Klebsiella pneumoniae ATCC BAA-2782.
T1 construct: ATCC BAA-2782
Put plainly: microbe, parasite or virus in culture. Details: MIC of antibiotic alone from antibiotic potentiation assay against XDR strain. Conditions: ATCCBAA2782, read-out: MIC (μg/mL) / Klebsiella pneumoniae ATCC BAA-2782. The text has this: (§2) We further tested the potentiation of Ar1, Ar5, Ar11, and Ar18 to RND efflux pump substrates (ciprofloxacin, levofloxacin, tetracycline, tigecycline, erythromycin, piperacillin, and chloramphenicol) against XDR E. coli ATCC BAA-2774 (expressing AcrAB-TolC), K. pneumoniae ATCC BAA-2782 (expressing AcrAB-TolC), and P. aeruginosa ATCC BAA-2795 (expressing MexAB-OprM). […] The fact that compounds potentiate a given antibiotic against efflux pump over-expressed strain but not deletion provides substantial evidence that the inhibition effect is RND efflux pump specific targeting AcrAB and MexAB efflux systems. The antibiotics, chemicals, and dyes were purchased from Sigma-Aldrich Chemical Co. (St. Louis, MO, United States) unless stated otherwise. The E. coli wild-type K-12 AG100 (argE3 thi-1 rpsLxylmtlΔ(gal-uvrB)supE44) and its derivatives, AcrB over-expressing AG100tet and AcrAB knockout AG100A (ΔacrAB::Tn903 Kan^r) were used in the study. AG100tet is derived from AG100 by gradual stepwise exposure to increased concentrations of tetracycline and was grown in the presence of 8 μg/mL tetracycline to maintain efflux pump over-expression. AG100A was grown in the presence of 100 μg/mL kanamycin to preserve the transposon. The P. aeruginosa ATCC BAA-2795 over-expressing MexAB-OprM (Chromachemie, India), and PAO750 (PAO1: ΔmexAB-oprM, ΔmexCD-oprJ, ΔmexEF-oprN, ΔmexXY) were also used in the study. The strains P. aeruginosa ATCC 27853, P. aeruginosa ATCC 15692 (PAO1), K. Pneumoniae ATCC BAA-2782, K. Pneumoniae ATCC 700603, and E. coli ATCC BAA-2774, were purchased from Himedia, India. All the strains were grown in BBL Cation-adjusted Mueller Hinton Broth (CA-MHB; BD, U.S.) at 37°C under standard conditions. Mueller Hinton Agar (MHA; Himedia, India) plates were used for bacterial viability counting.

Data set [4] concerns T2, Escherichia coli ATCC BAA-2774.
T2 construct: ATCC BAA-2774
Put plainly: microbe, parasite or virus in culture. Details: MIC of antibiotic alone from antibiotic potentiation assay against XDR strain. The note with it: ATCC BAA-2774 / ATCC BAA-2782, read-out: MIC (μg/mL) / Klebsiella pneumoniae ATCC BAA-2782 / Escherichia coli ATCC BAA-2774.
From the text: as §2

Data set [5] has as its system T3, Pseudomonas aeruginosa ATCC BAA-2795.
T3 construct: ATCC BAA-2795
The data set is described as follows: microbe, parasite or virus in culture. Also on record: MIC of antibiotic alone from antibiotic potentiation assay against XDR strain. Conditions: ATCC BAA-2782 / ATCC BAA-2795, read-out: MIC (μg/mL) / Klebsiella pneumoniae ATCC BAA-2782 / Pseudomonas aeruginosa ATCC BAA-2795.
From the text: as §2

Each structure is given as a SMILES string. In brackets after ≈: the same amount, converted by molar mass. Where two headings read alike, the source gives them in different places.

As to `CCOC(=O)c1cc(-c2cccc(CO)c2)cn1Cc1ccc(F)cc1` [Ar20], the CC50 at 24 h in “in vitro [1]” and in “in vitro [2]” was over 128 µg/mL each time.
Regarding `CCOC(=O)c1cc(-c2ccc(F)cc2)c[nH]1` [Ar17], the CC50 at 24 h in the data set “in vitro [1]” and in the data set “in vitro [2]” was 256 µg/mL (≈ 1100 µM) in each case.
As for `CCOC(=O)c1cc(-c2ccc(F)cc2F)cn1Cc1ccc(F)cc1` [Ar18], the CC50 at 24 h in “in vitro [1]” and in “in vitro [2]” was over 128 µg/mL each time.
For `CN(C)c1cc(NC(=O)CNC(C)(C)C)c(O)c2c1C[C@H]1C[C@H]3[C@H](N(C)C)C(O)=C(C(N)=O)C(=O)[C@@]3(O)C(O)=C1C2=O` [Tigecycline], the MIC in data set [3] turned out to be 64 µg/mL; in data set [4] it was 128 µg/mL; in data set [5] it was 256 µg/mL.
The like results for `O=C(O)c1cn(C2CC2)c2cc(N3CCNCC3)c(F)cc2c1=O` [Ciprofloxacin] were, in that order, 128 µg/mL, 256 µg/mL and 256 µg/mL.
The like results for `CC[C@H]1OC(=O)[C@H](C)[C@@H](O[C@H]2C[C@@](C)(OC)[C@@H](O)[C@H](C)O2)[C@H](C)[C@@H](O[C@@H]2O[C@H](C)C[C@H](N(C)C)[C@H]2O)[C@](C)(O)C[C@@H](C)C(=O)[C@H](C)[C@@H](O)[C@]1(C)O` [Erythromycin] were, in that order, 128 µg/mL, 512 µg/mL and 512 µg/mL.
With `COC(=O)c1cc(-c2cccc(NC(C)=O)c2)cn1Cc1ccc(C)cc1` [Ar11], the CC50 at 24 h in “in vitro [1]” and in the data set “in vitro [2]” was over 256 µg/mL in each case.
For `COC(=O)c1cc(-c2ccc(F)cc2)cn1Cc1ccc(F)cc1` [Ar1], the CC50 at 24 h in “in vitro [1]” and in the data set “in vitro [2]” was 256 µg/mL (≈ 782 µM) in each case.
With `O=C(N[C@H](CO)[C@H](O)c1ccc([N+](=O)[O-])cc1)C(Cl)Cl` [Chloramphenicol], the MIC in data set [3] worked out at 16 µg/mL; in data set [4], 32 µg/mL; in data set [5], 256 µg/mL.
For the compound `CCOC(=O)c1cc(-c2ccc(C(F)(F)F)cc2)cn1Cc1ccc(C)cc1` [Ar24], the CC50 at 24 h in “in vitro [1]” and in the data set “in vitro [2]” was 256 µg/mL (≈ 661 µM) in each case.
As to `CN(C)[C@@H]1C(O)=C(C(N)=O)C(=O)[C@@]2(O)C(O)=C3C(=O)c4c(O)cccc4[C@@](C)(O)[C@H]3C[C@@H]12` [Tetracycline], the MIC came out at 4 µg/mL in data set [3], 256 µg/mL in data set [4] and 32 µg/mL in data set [5].
`CCOC(=O)c1cc(-c2ccc(F)cn2)cn1Cc1ccc(F)cc1` [Ar19]: the CC50 at 24 h in the data set “in vitro [1]” and in the data set “in vitro [2]” was over 128 µg/mL throughout.
Turning to `CCN1CCN(C(=O)N[C@@H](C(=O)N[C@@H]2C(=O)N3[C@@H]2SC(C)(C)[C@@H]3C(=O)O)c2ccccc2)C(=O)C1=O` [Piperacillin], the MIC in data set [3] is 1020 µg/mL; in data set [4], 512 µg/mL; in data set [5], 256 µg/mL.
On to `CCOC(=O)c1cc(-c2ccc(C#N)cc2)cn1Cc1ccc(F)cc1` [Ar21], for which the CC50 at 24 h in “in vitro [1]” and in the data set “in vitro [2]” was 256 µg/mL (≈ 735 µM) each time.
On to `CCOC(=O)c1cc(-c2ccc(C(F)(F)F)cc2)cn1Cc1ccc(F)cc1` [Ar16], for which the CC50 at 24 h in “in vitro [1]” and in “in vitro [2]” was 256 µg/mL (≈ 654 µM) each time.
Consider `C[C@H]1COc2c(N3CCN(C)CC3)c(F)cc3c(=O)c(C(=O)O)cn1c23` [Levofloxacin], for which the MIC was 32 µg/mL in data set [3], 32 µg/mL in data set [4] and 256 µg/mL in data set [5].
